According to BindingDB's records for doi:10.1016/j.ejmech.2018.08.073 (Indian Csir-Central Drug Research Institute, 2018):

Biological target: T1, Histone deacetylase 6 (Homo sapiens, UniProt Q9UBN7)
T1 sequence (Q9UBN7 whole entry): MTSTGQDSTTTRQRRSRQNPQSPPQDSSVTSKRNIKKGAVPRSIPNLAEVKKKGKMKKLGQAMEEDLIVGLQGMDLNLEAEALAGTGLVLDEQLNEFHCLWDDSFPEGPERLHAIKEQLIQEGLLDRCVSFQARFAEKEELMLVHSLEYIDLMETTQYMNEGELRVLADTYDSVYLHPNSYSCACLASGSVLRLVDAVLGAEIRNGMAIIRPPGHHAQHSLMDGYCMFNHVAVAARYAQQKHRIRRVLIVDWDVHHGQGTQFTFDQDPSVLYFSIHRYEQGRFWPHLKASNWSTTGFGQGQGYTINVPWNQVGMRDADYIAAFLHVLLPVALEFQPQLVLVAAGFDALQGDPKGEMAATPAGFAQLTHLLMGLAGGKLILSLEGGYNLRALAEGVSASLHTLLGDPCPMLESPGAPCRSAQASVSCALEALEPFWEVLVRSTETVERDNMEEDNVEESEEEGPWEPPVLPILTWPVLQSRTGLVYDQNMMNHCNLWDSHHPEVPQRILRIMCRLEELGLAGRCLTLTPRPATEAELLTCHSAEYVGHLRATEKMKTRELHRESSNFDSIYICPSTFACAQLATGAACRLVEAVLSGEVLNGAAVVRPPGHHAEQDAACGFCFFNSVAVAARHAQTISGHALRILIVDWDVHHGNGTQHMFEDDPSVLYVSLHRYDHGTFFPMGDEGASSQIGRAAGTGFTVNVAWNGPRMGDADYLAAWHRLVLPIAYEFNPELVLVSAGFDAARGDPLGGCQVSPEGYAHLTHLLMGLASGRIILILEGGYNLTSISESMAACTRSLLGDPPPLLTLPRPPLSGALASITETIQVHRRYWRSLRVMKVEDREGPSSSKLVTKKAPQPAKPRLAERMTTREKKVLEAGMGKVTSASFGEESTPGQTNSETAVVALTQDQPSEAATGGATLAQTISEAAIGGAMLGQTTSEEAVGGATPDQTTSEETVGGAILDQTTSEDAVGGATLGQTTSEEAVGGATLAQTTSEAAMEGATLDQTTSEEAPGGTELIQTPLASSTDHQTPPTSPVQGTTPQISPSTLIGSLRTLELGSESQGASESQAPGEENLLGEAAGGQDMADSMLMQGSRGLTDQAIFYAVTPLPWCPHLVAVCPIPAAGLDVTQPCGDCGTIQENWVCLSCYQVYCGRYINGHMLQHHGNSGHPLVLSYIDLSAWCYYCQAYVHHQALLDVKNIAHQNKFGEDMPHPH
Assay: Inhibition of recombinant full-length human N-terminal GST-tagged HDAC6 expressed in baculovirus infected Sf9 insect cells using fluorescent-labelled Arg-His-Lys-Lys(Ac) as substrate measured after 2 hrs by fluorescence assay

IC50: 1.5 nM
Structure (SMILES): Cc1c(CN)c2ccccc2n1-c1ccc(C(=O)NO)cc1
